Measurements as given in ChEMBL document CHEMBL1201862, “PubChem BioAssay data set” (2004).
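1) Cells in 96-well plates. 2) Compound, 48 h, 5 concentrations. 3) Linear interpolation between surrounding doses. 4) Unreached endpoint = highest concentration. GI50 is the concentration that inhibits growth by half.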 Calls of active or inactive are those of the source. Cut-off read from the data, not from the text of the source: active = GI50 up to about 1.1 µM and inactive = higher.

Experiments:
Assay in all cases: NCI-60 cell line screen, 48 h
[1] = test system: COLO 205
[2] = test system: SNB-75
[3] = test system: OVCAR-4
[4] = test system: RXF 393
[5] = test system: HCT-15
[6] = test system: M19-MEL
[7] = test system: XF498
[8] = test system: EKVX
[9] = test system: HCC 2998
[10] = test system: M14
[11] = test system: A549
[12] = test system: SK-MEL-28
[13] = test system: ACHN
[14] = test system: HOP-18
[15] = test system: DMS-114
[16] = test system: HCT-116
[17] = test system: MOLT-4
[18] = test system: HOP-62
[19] = test system: NCI-H23
[20] = test system: HL-60
[21] = test system: DMS-273
[22] = test system: RPMI-8226
[23] = test system: NCI-H460
[24] = test system: RXF 631
[25] = test system: SNB-78
[26] = test system: OVCAR-3
[27] = test system: SK-OV-3
[28] = test system: TK-10
[29] = test system: HOP-92
[30] = test system: CCRF-CEM
[31] = test system: HT-29
[32] = test system: SW-620
[33] = test system: DLD-1
[34] = test system: OVCAR-8
[35] = test system: UACC-257
[36] = test system: UACC-62
[37] = test system: SF-539
[38] = test system: A498
[39] = test system: SN12C
[40] = test system: LOX IMVI
[41] = test system: 786-0
[42] = test system: KM-20L2
[43] = test system: LXFL 529
[44] = test system: SF-295
[45] = test system: SNB-19
[46] = test system: K562
[47] = test system: CAKI-1
[48] = test system: U-251
[49] = test system: SK-MEL-5
[50] = test system: IGROV-1

Measured: GI50

CCOC(=O)NC(=O)c1cn(CCCCCCCCCCC(=O)N2CCN(CCn3cc(C(=O)NC(=O)OCC)c(=O)[nH]c3=O)CC2)c(=O)[nH]c1=O
inactive: [1] > 100 µM | [2] > 100 µM | [3] > 100 µM | [4] > 100 µM | [6] > 100 µM | [7] > 100 µM | [8] > 100 µM | [9] > 100 µM | [10] > 100 µM | [11] > 100 µM | [12] > 100 µM | [13] > 100 µM | [14] > 100 µM | [15] > 100 µM | [16] > 100 µM | [17] > 100 µM | [18] > 100 µM | [19] > 100 µM | [20] > 100 µM | [21] > 100 µM | [22] > 100 µM | [23] > 100 µM | [24] > 100 µM | [25] > 100 µM | [26] > 100 µM | [27] > 100 µM | [28] > 100 µM | [29] > 100 µM | [30] > 100 µM | [31] > 100 µM | [32] > 100 µM | [33] > 100 µM | [34] > 100 µM | [35] > 100 µM | [36] > 100 µM | [37] > 100 µM | [38] > 100 µM | [39] > 100 µM | [40] > 100 µM | [41] > 100 µM | [42] > 100 µM | [43] > 100 µM | [44] > 100 µM | [45] > 100 µM | [46] > 100 µM | [47] > 100 µM | [48] > 100 µM | [49] > 100 µM | [50] > 100 µM
> 100 µM: [5]
